Work on O=C(O)c1cccc(-c2cccc(CC(=O)N(Cc3ccccc3)[C@@H]3c4ccccc4CC[C@H]3Cc3ccccc3)c2)c1 (relative stereo) [Example 1, trans-3′-{[Benzyl-(2-benzyl-1,2,3,4-tetrahydro-naphthalen-1-yl)-carbamoyl]-methyl}-biphenyl-3-carboxylic acid] yielded a melting point of 171 to 172 °C.
